# Structures can show the parent of a compound that is named as a salt.
# Experiments:
# IGROV-1 = test: cells; type: functional, cell-based, Homo sapiens; conditions: Homo sapiens, IGROV-1;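 further: reduction of IGROV-1 cell growth, read out with a viability assay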
# Description: SANGER: Inhibition of human IGROV-1 cell growth in a cell viability assay.
# T84 = test: cells; type: functional, cell-based, Homo sapiens; conditions: Homo sapiens, T84;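 further: growth inhibition measured with a cell viability readout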
# Description: SANGER: Inhibition of human T84 cell growth in a cell viability assay.
# U2OS = test: cells; type: functional, cell-based, Homo sapiens, U-2-OS; conditions: Homo sapiens, U2OS;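 further: growth inhibition of human U-2-OS cells, determined with a cell viability assay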
# Description: SANGER: Inhibition of human U-2-OS cell growth in a cell viability assay.
# COLO-792 = test: cells; type: functional, cell-based, Homo sapiens; conditions: Homo sapiens, COLO-792
# Description: SANGER: Inhibition of human COLO-792 cell growth in a cell viability assay.
# HCC1599 = test: cells; type: functional, cell-based, Homo sapiens; conditions: Homo sapiens, HCC1599;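 further: growth inhibition of HCC1599 cells, read out in a cell viability assay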
# Description: SANGER: Inhibition of human HCC1599 cell growth in a cell viability assay.
# LC4-1 = test: cells; type: functional, cell-based, Homo sapiens; conditions: Homo sapiens, LC4-1;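 further: growth inhibition of LC4-1 cells, read out with a cell viability assay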
# Description: SANGER: Inhibition of human LC4-1 cell growth in a cell viability assay.
# MRK-nu-1 = test: cells; type: functional, cell-based, Homo sapiens; conditions: Homo sapiens, MRK-nu-1;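 further: cell viability assay measuring growth suppression of human MRK-nu-1 cells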
# Description: SANGER: Inhibition of human MRK-nu-1 cell growth in a cell viability assay.
# ChaGo-K-1 = test: cells; type: functional, cell-based, Homo sapiens; conditions: Homo sapiens, ChaGo-K-1;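 further: growth inhibition of ChaGo-K-1 cells, read out with a cell viability assay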
# Description: SANGER: Inhibition of human ChaGo-K-1 cell growth in a cell viability assay.
# NCI-H1703 = test: cells; type: functional, cell-based, Homo sapiens; conditions: Homo sapiens, NCI-H1703;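 further: growth inhibition of NCI-H1703 cells, read out via a cell viability assay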
# Description: SANGER: Inhibition of human NCI-H1703 cell growth in a cell viability assay.
# KMS-12-PE = test: cells; type: functional, cell-based, Homo sapiens; conditions: Homo sapiens, KMS-12-PE;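 further: growth inhibition of human KMS-12-PE cells, measured with a cell viability assay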
# Description: SANGER: Inhibition of human KMS-12-PE cell growth in a cell viability assay.
# PANC-03-27 = test: cells; type: functional, cell-based, Homo sapiens; conditions: Homo sapiens, PANC-03-27
# Description: SANGER: Inhibition of human PANC-03-27 cell growth in a cell viability assay.
# MONO-MAC-6 = test: cells; type: functional, cell-based, Homo sapiens; conditions: Homo sapiens, MONO-MAC-6;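 further: cell viability assay measuring growth inhibition of human MONO-MAC-6 cells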
# Description: SANGER: Inhibition of human MONO-MAC-6 cell growth in a cell viability assay.
# CHP-212 = test: cells; type: functional, cell-based, Homo sapiens; conditions: Homo sapiens, CHP-212
# Description: SANGER: Inhibition of human CHP-212 cell growth in a cell viability assay.
# NCI-H460 = test: cells; type: functional, cell-based, Homo sapiens; conditions: Homo sapiens, NCI-H460;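 further: cell viability assay scoring growth inhibition of human NCI-H460 cells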
# Description: SANGER: Inhibition of human NCI-H460 cell growth in a cell viability assay.
# IM-9 = test: SANGER: Inhibition of human IM-9 cell growth in a cell viability assay.; type: functional, cell-based; conditions: Homo sapiens, IM-9
# SW837 = test: cells; type: functional, cell-based, Homo sapiens; conditions: Homo sapiens, SW837;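 further: growth inhibition of SW837 cells, determined with a cell viability assay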
# Description: SANGER: Inhibition of human SW837 cell growth in a cell viability assay.
# CAL-72 = test: cells; type: functional, cell-based, Homo sapiens; conditions: Homo sapiens, CAL-72;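 further: cell viability assay measuring inhibition of proliferation in the CAL-72 cell line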
# Description: SANGER: Inhibition of human CAL-72 cell growth in a cell viability assay.
# LCLC-97TM1 = test: cells; type: functional, cell-based, Homo sapiens; conditions: Homo sapiens, LCLC-97TM1;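 further: cell viability assay measuring growth inhibition of human LCLC-97TM1 cells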
# Description: SANGER: Inhibition of human LCLC-97TM1 cell growth in a cell viability assay.
# BHY = test: cells; type: functional, cell-based, Homo sapiens; conditions: Homo sapiens, BHY;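 further: cell growth inhibition read out by a viability assay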
# Description: SANGER: Inhibition of human BHY cell growth in a cell viability assay.
# HuP-T4 = test: cells; type: functional, cell-based, Homo sapiens; conditions: Homo sapiens, HuP-T4;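 further: cell viability assay measuring how much HuP-T4 cell growth is inhibited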
# Description: SANGER: Inhibition of human HuP-T4 cell growth in a cell viability assay.
# NCI-H522 = test: cells; type: functional, cell-based, Homo sapiens; conditions: Homo sapiens, NCI-H522;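 further: cell viability assay measuring growth inhibition of human NCI-H522 cells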
# Description: SANGER: Inhibition of human NCI-H522 cell growth in a cell viability assay.
# NCI-H1963 = test: cells; type: functional, cell-based, Homo sapiens; conditions: Homo sapiens, NCI-H1963;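 further: cell growth inhibition of the human line, determined with a cell viability assay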
# Description: SANGER: Inhibition of human NCI-H1963 cell growth in a cell viability assay.
# TALL-1 = test: cells; type: functional, cell-based, Homo sapiens; conditions: Homo sapiens, TALL-1;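 further: growth inhibition of cultured human TALL-1 cells, read out by a cell viability assay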
# Description: SANGER: Inhibition of human TALL-1 cell growth in a cell viability assay.
# HT55 = test: cells; type: functional, cell-based, Homo sapiens; conditions: Homo sapiens, HT55;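 further: cell viability readout measuring growth inhibition of human HT55 cells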
# Description: SANGER: Inhibition of human HT55 cell growth in a cell viability assay.
# SK-N-AS = test: cells; type: functional, cell-based, Homo sapiens; conditions: Homo sapiens, SK-N-AS;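 further: growth inhibition of human SK-N-AS cells, measured with a cell viability assay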
# Description: SANGER: Inhibition of human SK-N-AS cell growth in a cell viability assay.
# DG-75 = test: cells; type: functional, cell-based, Homo sapiens; conditions: Homo sapiens, DG-75;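 further: growth inhibition of DG-75 cells, read out with a cell viability assay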
# Description: SANGER: Inhibition of human DG-75 cell growth in a cell viability assay.
# LoVo = test: cells; type: functional, cell-based, Homo sapiens; conditions: Homo sapiens, LoVo;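 further: growth inhibition of human LoVo cells, read out with a cell viability assay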
# Description: SANGER: Inhibition of human LoVo cell growth in a cell viability assay.
# KYSE-520 cell line = test: cells; type: functional, cell-based, Homo sapiens; conditions: Homo sapiens, KYSE-520;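 further: growth inhibition of human KYSE-520 cells, read out with a viability assay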
# Description: SANGER: Inhibition of human KYSE-520 cell growth in a cell viability assay.
# Panc1005 = test: cells; type: functional, cell-based, Homo sapiens; conditions: Homo sapiens, Panc1005;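 further: growth inhibition of human PANC-10-05 cells, measured by a cell viability assay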
# Description: SANGER: Inhibition of human PANC-10-05 cell growth in a cell viability assay.
# BOKU = test: cells; type: functional, cell-based, Homo sapiens; conditions: Homo sapiens, BOKU;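 further: growth inhibition of the human BOKU cell line, read out by a cell viability assay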
# Description: SANGER: Inhibition of human BOKU cell growth in a cell viability assay.
# U-251 = test: cells; type: functional, cell-based, Homo sapiens; conditions: Homo sapiens, U-251;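 further: growth inhibition of human U-251 cells, read out through a cell viability assay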
# Description: SANGER: Inhibition of human U251 cell growth in a cell viability assay.
# BPH-1 = test: cells; type: functional, cell-based, Homo sapiens; conditions: Homo sapiens, BPH-1;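 further: cell viability assay measuring growth inhibition of human BPH-1 cells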
# Description: SANGER: Inhibition of human BPH-1 cell growth in a cell viability assay.
# NCI-H2196 = test: cells; type: functional, cell-based, Homo sapiens; conditions: Homo sapiens, NCI-H2196;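 further: cell viability assay used as the readout of growth inhibition in NCI-H2196 cells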
# Description: SANGER: Inhibition of human NCI-H2196 cell growth in a cell viability assay.
# HT-3 = test: cells; type: functional, cell-based, Homo sapiens; conditions: Homo sapiens, HT-3;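 further: growth inhibition measured with a cell viability readout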
# Description: SANGER: Inhibition of human HT-3 cell growth in a cell viability assay.
# G-361 = test: cells; type: functional, cell-based, Homo sapiens; conditions: Homo sapiens, G-361
# COR-L279 = test: SANGER: Inhibition of human COR-L279 cell growth in a cell viability assay.; type: functional, cell-based; conditions: Homo sapiens, COR-L279
# IST-SL2 = test: cells; type: functional, cell-based, Homo sapiens; conditions: Homo sapiens, IST-SL2;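 further: growth inhibition of human IST-SL2 cells, read out by a cell viability assay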
# Description: SANGER: Inhibition of human IST-SL2 cell growth in a cell viability assay.
# SK-MEL-24 = test: cells; type: functional, cell-based, Homo sapiens; conditions: Homo sapiens, SK-MEL-24;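 further: growth inhibition read out by a cell viability assay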
# Description: SANGER: Inhibition of human SK-MEL-24 cell growth in a cell viability assay.
# MCF7 = test: cells; type: functional, cell-based, Homo sapiens; conditions: Homo sapiens, MCF7;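 further: growth inhibition of human MCF7 cells, read out with a cell viability assay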
# Description: SANGER: Inhibition of human MCF7 cell growth in a cell viability assay.
# LP-1 = test: cells; type: functional, cell-based, Homo sapiens; conditions: Homo sapiens, LP-1;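 further: growth inhibition of human LP-1 cells, with the read-out taken from a cell viability assay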
# Description: SANGER: Inhibition of human LP-1 cell growth in a cell viability assay.
# NUGC-3 = test: cells; type: functional, cell-based, Homo sapiens; conditions: Homo sapiens, NUGC-3;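 further: growth inhibition of human NUGC-3 cells, read out with a cell viability assay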
# Description: SANGER: Inhibition of human NUGC-3 cell growth in a cell viability assay.
# CPC-N = test: cells; type: functional, cell-based, Homo sapiens; conditions: Homo sapiens, CPC-N;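 further: growth inhibition of CPC-N cells, with a cell viability assay as the readout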
# Description: SANGER: Inhibition of human CPC-N cell growth in a cell viability assay.
# EB2 = test: cells; type: functional, cell-based, Homo sapiens; conditions: Homo sapiens, EB2;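 further: growth inhibition of EB2 cells, read out with a cell viability assay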
# Description: SANGER: Inhibition of human EB2 cell growth in a cell viability assay.
# BT-20 = test: cells; type: functional, cell-based, Homo sapiens; conditions: Homo sapiens, BT-20;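 further: cell viability assay measuring suppression of growth in human BT-20 cells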
# Description: SANGER: Inhibition of human BT-20 cell growth in a cell viability assay.
# KP-4 = test: cells; type: functional, cell-based, Homo sapiens; conditions: Homo sapiens, KP-4;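 further: human KP-4 cells, with growth inhibition read out through a cell viability assay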
# Description: SANGER: Inhibition of human KP-4 cell growth in a cell viability assay.
# HT-29 = test: cells; type: functional, cell-based, Homo sapiens; conditions: Homo sapiens, HT-29;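 further: growth inhibition of human HT-29 cells, read out by a cell viability assay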
# Description: SANGER: Inhibition of human HT-29 cell growth in a cell viability assay.
compound,measurement,setting,value
COC1=CC(c2cc3ccccc3[nH]2)=N/C1=C\c1[nH]c(C)cc1C [OBATOCLAX MESYLATE],IC50,IGROV-1,< 62.5 nM
same,IC50,T84,212 nM
same,IC50,U2OS,> 16 µM
same,IC50,COLO-792,132 nM
same,IC50,HCC1599,500 nM
same,IC50,LC4-1,514 nM
same,IC50,MRK-nu-1,49.4 nM
same,IC50,ChaGo-K-1,612 nM
same,IC50,NCI-H1703,594 nM
same,IC50,KMS-12-PE,5.35 µM
same,IC50,PANC-03-27,96.7 nM
same,IC50,MONO-MAC-6,438 nM
same,IC50,CHP-212,81 nM
same,IC50,NCI-H460,101 nM
same,IC50,IM-9,330 nM
same,IC50,SW837,467 nM
same,IC50,CAL-72,534 nM
same,IC50,LCLC-97TM1,55.9 nM
same,IC50,BHY,< 62.5 nM
same,IC50,HuP-T4,41.2 nM
same,IC50,NCI-H522,181 nM
same,IC50,NCI-H1963,1050 nM
same,IC50,TALL-1,> 16 µM
same,IC50,HT55,2790 nM
same,IC50,SK-N-AS,1050 nM
same,IC50,DG-75,6.89 µM
same,IC50,LoVo,87.2 nM
same,IC50,KYSE-520 cell line,483 nM
same,IC50,Panc1005,115 nM
same,IC50,BOKU,1280 nM
same,IC50,U-251,335 nM
same,IC50,BPH-1,563 nM
same,IC50,NCI-H2196,3.35 µM
same,IC50,HT-3,1310 nM
same,IC50,G-361,< 62.5 nM
same,IC50,COR-L279,572 nM
same,IC50,IST-SL2,94.7 nM
same,IC50,SK-MEL-24,913 nM
same,IC50,MCF7,< 62.5 nM
same,IC50,LP-1,213 nM
same,IC50,NUGC-3,30.5 nM
same,IC50,CPC-N,1980 nM
same,IC50,EB2,< 62.5 nM
same,IC50,BT-20,4.49 µM
same,IC50,KP-4,696 nM
same,IC50,HT-29,44.9 nM
